These results are taken from patent US9708314B2, “Heterocyclic amide compound” (NISSAN CHEMICAL INDUSTRIES, LTD., priority 2013, dated 2017).

SMILES strings stand for the structures.

Holding throughout (type): in vivo
Series [1] has as its system Monochoria vaginalis. Briefly: Test Example 1: herbicidal activity, application before weed generation in submerged conditions. The conditions noted are these: Seventeenth Table; for C (Monochoria vaginalis) herbicidal ratio grade: application herbicide amount 320 g/ha; for C: Monochoria vaginalis (herbicidal effect grade): Application herbicide amount 320 g/ha. In outline:
(§1)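 Water-diluted emulsion formulation is applied onto flood water (4 cm deep) covering alluvial soil on the day weed seeds are sown, after transplanting 2.5 leaf stage rice. Rates are expressed per hectare. Injury or control is graded 0–5 three weeks later.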

The test system of series [2] is Scirpus juncoides. The series is described as above. The conditions noted are these: Seventeenth Table; for B (Scirpus juncoides) herbicidal ratio grade: application herbicide amount 320 g/ha; for B: Scirpus juncoides (herbicidal effect grade): Application herbicide amount 320 g/ha. In outline:
as §1

For series [3], the system named is Echinochloa oryzacola Vasing. Described as above. As to conditions: Seventeenth Table; for A (Echinochloa oryzicola Vasing.) herbicidal ratio grade: application herbicide amount 320 g/ha; for A: Echinochloa oryzicola Vasing. (herbicidal effect grade): Application herbicide amount 320 g/ha. In outline:
as §1

Series [4] has as its system transplanted Oryza sativa. Briefly: Test Example 1: effect on crop, application before weed generation in submerged conditions. The conditions noted are these: Seventeenth Table; for a (transplanted Oryza sativa) effect on crop grade: application herbicide amount 320 g/ha; for a: transplanted Oryza sativa (effect on crop grade): Application herbicide amount 320 g/ha. The method in brief: as §1

For series [5], the system named is Monochoria vaginalis. Briefly: Test Example 2: herbicidal activity, application during weed generation in submerged conditions. The conditions noted are these: Eighteenth Table; application herbicide amount 320 g/ha. The method in brief:
(§2)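 Seeds were sown together in alluvial soil kept under 4 cm of water and grown at 25 °C to 30 °C. Once plants reached the one- to two-leaf stage, the diluted emulsion was applied to the water surface at a predetermined g/ha amount, and effects were rated 0–5 after three weeks.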

Series [6] concerns Scirpus juncoides. The series is described as above. The conditions noted are these: Eighteenth Table; application herbicide amount 320 g/ha. In outline:
as §2

Series [7] concerns Echinochloa oryzacola Vasing. The series is described as above. The conditions noted are these: Eighteenth Table; application herbicide amount 320 g/ha. In outline: as §2
For series [8], the system named is directly sowed Oryza sativa. Briefly: Test Example 3: effect on crop by application to foliage (Wagner pot, water depth 0.1-0.5 cm). As to conditions: Nineteenth Table; application to foliage; application herbicide amount 320 g/ha. The method in brief: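 Seeds were sown in alluvial soil in Wagner pots, grown for 14 days at 25–30 °C, then sprayed uniformly on foliage with the emulsified compound diluted to a given rate per hectare. Injury was graded three weeks after treatment from 0 (≤5%) to 5 (≥90%).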

For the molecule `Cn1nnnc1NC(=O)c1ccc(C(F)(F)F)n2c(C3(C)CC3(Cl)Cl)nnc12` (centres unmarked) [2-110], the “C (Monochoria vaginalis) herbicidal ratio grade” value in the series with Monochoria vaginalis [1] is 5 (Herbicidal ratio of 90% or more (almost completely withered)); with Monochoria vaginalis [5], 4 (Herbicidal ratio of 70% or more and less than 90%). For the same molecule, the “B (Scirpus juncoides) herbicidal ratio grade” value in the series on Scirpus juncoides [2] and in the series with Scirpus juncoides [6] was 5 (Herbicidal ratio of 90% or more (almost completely withered)) each time. The “A (Echinochloa oryzicola Vasing.) herbicidal ratio grade” value in series [3] and in series [7] was 5 (Herbicidal ratio of 90% or more (almost completely withered)) in each case. In series [4], the “a (transplanted Oryza sativa) effect on crop grade” value is 4 (Herbicidal ratio of 70% or more and less than 90%). Further, in series [8], the “b (effect on crop grade)” value is 3 (Herbicidal ratio of 40% or more and less than 70%).
For `CSCCc1nnc2c(C(=O)Nc3nnnn3C)ccc(C(F)(F)F)n12` [2-057], the “C: Monochoria vaginalis (herbicidal effect grade)” value (“C: Monochoria vaginalis” below) with Monochoria vaginalis [1] is 4 (Herbicidal ratio of 70% or more and less than 90%). Besides, in the series on Scirpus juncoides [2], the “B: Scirpus juncoides (herbicidal effect grade)” value (“B: Scirpus juncoides” below) is 4 (Herbicidal ratio of 70% or more and less than 90%). Besides, the “A: Echinochloa oryzicola Vasing. (herbicidal effect grade)” value in series [3] is 4 (Herbicidal ratio of 70% or more and less than 90%). Besides, in series [4], the “a: transplanted Oryza sativa (effect on crop grade)” value (“a: transplanted Oryza sativa” for short) is 4 (Herbicidal ratio of 70% or more and less than 90%). In addition, the “C (Monochoria vaginalis) herbicidal ratio grade” value in the series on Monochoria vaginalis [5] is 4 (Herbicidal ratio of 70% or more and less than 90%). Further, the “B (Scirpus juncoides) herbicidal ratio grade” value in the series with Scirpus juncoides [6] is 4 (Herbicidal ratio of 70% or more and less than 90%). Further, the “A (Echinochloa oryzicola Vasing.) herbicidal ratio grade” value in series [7] is 4 (Herbicidal ratio of 70% or more and less than 90%). In series [8], the “b (effect on crop grade)” value was 5 (Herbicidal ratio of 90% or more (almost completely withered)).
Take `C#CCSc1nnc2c(C(=O)Nc3nnnn3C)ccc(C(F)(F)F)n12` [2-103]: the “C (Monochoria vaginalis) herbicidal ratio grade” value with Monochoria vaginalis [1] was 5 (Herbicidal ratio of 90% or more (almost completely withered)); with Monochoria vaginalis [5], 4 (Herbicidal ratio of 70% or more and less than 90%). For the same molecule, the “B (Scirpus juncoides) herbicidal ratio grade” value with Scirpus juncoides [2] is 4 (Herbicidal ratio of 70% or more and less than 90%); in the series on Scirpus juncoides [6], 3 (Herbicidal ratio of 40% or more and less than 70%). Moreover, the “A (Echinochloa oryzicola Vasing.) herbicidal ratio grade” value in series [3] was 5 (Herbicidal ratio of 90% or more (almost completely withered)); in series [7], 4 (Herbicidal ratio of 70% or more and less than 90%). The “a (transplanted Oryza sativa) effect on crop grade” value in series [4] is 3 (Herbicidal ratio of 40% or more and less than 70%). For the same molecule, the “b (effect on crop grade)” value in series [8] was 1 (Herbicidal ratio of 5% or more and less than 20%).
Take `CC(C)c1nnc2c(C(=O)Nc3nnnn3C)ccc(C(F)(F)C(F)(F)F)n12` [2-049]: the “C: Monochoria vaginalis” value with Monochoria vaginalis [1] was 4 (Herbicidal ratio of 70% or more and less than 90%). The “B: Scirpus juncoides” value with Scirpus juncoides [2] is listed as 5 (Herbicidal ratio of 90% or more (almost completely withered)). For the same molecule, the “A: Echinochloa oryzicola Vasing. (herbicidal effect grade)” value in series [3] was 5 (Herbicidal ratio of 90% or more (almost completely withered)). Moreover, in series [4], the “a: transplanted Oryza sativa” value is 3 (Herbicidal ratio of 40% or more and less than 70%). Also, in the series with Monochoria vaginalis [5], the “C (Monochoria vaginalis) herbicidal ratio grade” value was 4 (Herbicidal ratio of 70% or more and less than 90%). Besides, in the series on Scirpus juncoides [6], the “B (Scirpus juncoides) herbicidal ratio grade” value was 5 (Herbicidal ratio of 90% or more (almost completely withered)). Moreover, the “A (Echinochloa oryzicola Vasing.) herbicidal ratio grade” value in series [7] is on record as 5 (Herbicidal ratio of 90% or more (almost completely withered)). For the same molecule, the “b (effect on crop grade)” value in series [8] was 1 (Herbicidal ratio of 5% or more and less than 20%).
With `CN(c1nnc2c(C(=O)Nc3nnnn3C)ccc(C(F)(F)F)n12)C1CCCCC1` [2-083], the “C: Monochoria vaginalis” value with Monochoria vaginalis [1] is 4 (Herbicidal ratio of 70% or more and less than 90%). In the series with Scirpus juncoides [2], the “B: Scirpus juncoides” value is listed as 5 (Herbicidal ratio of 90% or more (almost completely withered)). Also, the “A: Echinochloa oryzicola Vasing. (herbicidal effect grade)” value in series [3] is given as 5 (Herbicidal ratio of 90% or more (almost completely withered)). For the same molecule, the “a: transplanted Oryza sativa” value in series [4] is 2 (Herbicidal ratio of 20% or more and less than 40%). In the series with Monochoria vaginalis [5], the “C (Monochoria vaginalis) herbicidal ratio grade” value was 3 (Herbicidal ratio of 40% or more and less than 70%). In addition, the “B (Scirpus juncoides) herbicidal ratio grade” value in the series on Scirpus juncoides [6] was 3 (Herbicidal ratio of 40% or more and less than 70%). Further, the “A (Echinochloa oryzicola Vasing.) herbicidal ratio grade” value in series [7] is 3 (Herbicidal ratio of 40% or more and less than 70%). Also, in series [8], the “b (effect on crop grade)” value is on record as 0 (Herbicidal ratio of 5% or less (almost no effect)).
As to `Cn1nnnc1NC(=O)c1ccc(C(F)(F)F)n2c(-c3cccs3)nnc12` [2-061], the “C: Monochoria vaginalis” value in the series on Monochoria vaginalis [1] was 5 (Herbicidal ratio of 90% or more (almost completely withered)). Also, the “B: Scirpus juncoides” value in the series with Scirpus juncoides [2] is 5 (Herbicidal ratio of 90% or more (almost completely withered)). Further, the “A: Echinochloa oryzicola Vasing. (herbicidal effect grade)” value in series [3] is on record as 5 (Herbicidal ratio of 90% or more (almost completely withered)). For the same molecule, the “a: transplanted Oryza sativa” value in series [4] is 4 (Herbicidal ratio of 70% or more and less than 90%). Also, the “C (Monochoria vaginalis) herbicidal ratio grade” value in the series on Monochoria vaginalis [5] is recorded as 5 (Herbicidal ratio of 90% or more (almost completely withered)). Besides, the “B (Scirpus juncoides) herbicidal ratio grade” value in the series with Scirpus juncoides [6] is 5 (Herbicidal ratio of 90% or more (almost completely withered)). In addition, the “A (Echinochloa oryzicola Vasing.) herbicidal ratio grade” value in series [7] is 4 (Herbicidal ratio of 70% or more and less than 90%). The “b (effect on crop grade)” value in series [8] is given as 5 (Herbicidal ratio of 90% or more (almost completely withered)).
Consider `CSCCNc1nnc2c(C(=O)Nc3nnnn3C)ccc(C(F)(F)F)n12` [2-080], for which the “C: Monochoria vaginalis” value in the series with Monochoria vaginalis [1] is recorded as 0 (Herbicidal ratio of 5% or less (almost no effect)). Besides, the “B: Scirpus juncoides” value in the series on Scirpus juncoides [2] is 0 (Herbicidal ratio of 5% or less (almost no effect)). For the same molecule, the “A: Echinochloa oryzicola Vasing. (herbicidal effect grade)” value in series [3] is 3 (Herbicidal ratio of 40% or more and less than 70%). Besides, in series [4], the “a: transplanted Oryza sativa” value is 2 (Herbicidal ratio of 20% or more and less than 40%). For the same molecule, the “C (Monochoria vaginalis) herbicidal ratio grade” value in the series on Monochoria vaginalis [5] is 0 (Herbicidal ratio of 5% or less (almost no effect)). The “B (Scirpus juncoides) herbicidal ratio grade” value in the series on Scirpus juncoides [6] was 1 (Herbicidal ratio of 5% or more and less than 20%). The “A (Echinochloa oryzicola Vasing.) herbicidal ratio grade” value in series [7] was 2 (Herbicidal ratio of 20% or more and less than 40%). Further, in series [8], the “b (effect on crop grade)” value is 3 (Herbicidal ratio of 40% or more and less than 70%).
For the molecule `COCCn1nnnc1NC(=O)c1ccc(C(F)(F)F)n2c(C(C)C)nnc12` [2-041], the “C: Monochoria vaginalis” value in the series on Monochoria vaginalis [1] is 4 (Herbicidal ratio of 70% or more and less than 90%). Moreover, the “B: Scirpus juncoides” value in the series with Scirpus juncoides [2] is on record as 5 (Herbicidal ratio of 90% or more (almost completely withered)). In addition, the “A: Echinochloa oryzicola Vasing. (herbicidal effect grade)” value in series [3] is reported as 5 (Herbicidal ratio of 90% or more (almost completely withered)). Moreover, the “a: transplanted Oryza sativa” value in series [4] was 0 (Herbicidal ratio of 5% or less (almost no effect)). The “C (Monochoria vaginalis) herbicidal ratio grade” value in the series with Monochoria vaginalis [5] is 3 (Herbicidal ratio of 40% or more and less than 70%). In the series with Scirpus juncoides [6], the “B (Scirpus juncoides) herbicidal ratio grade” value is 4 (Herbicidal ratio of 70% or more and less than 90%). The “A (Echinochloa oryzicola Vasing.) herbicidal ratio grade” value in series [7] is listed as 5 (Herbicidal ratio of 90% or more (almost completely withered)). The “b (effect on crop grade)” value in series [8] is 3 (Herbicidal ratio of 40% or more and less than 70%).
`CC(C)c1nnc2c(C(=O)Nc3nnnn3C)ccc(C(F)F)n12` [2-047]: the “C: Monochoria vaginalis” value in the series on Monochoria vaginalis [1] was 5 (Herbicidal ratio of 90% or more (almost completely withered)). Also, in the series with Scirpus juncoides [2], the “B: Scirpus juncoides” value was 4 (Herbicidal ratio of 70% or more and less than 90%). In addition, the “A: Echinochloa oryzicola Vasing. (herbicidal effect grade)” value in series [3] is given as 5 (Herbicidal ratio of 90% or more (almost completely withered)). Further, the “a: transplanted Oryza sativa” value in series [4] was 4 (Herbicidal ratio of 70% or more and less than 90%). Further, the “C (Monochoria vaginalis) herbicidal ratio grade” value in the series on Monochoria vaginalis [5] is 4 (Herbicidal ratio of 70% or more and less than 90%). Also, the “B (Scirpus juncoides) herbicidal ratio grade” value with Scirpus juncoides [6] was 5 (Herbicidal ratio of 90% or more (almost completely withered)). In addition, the “A (Echinochloa oryzicola Vasing.) herbicidal ratio grade” value in series [7] is 3 (Herbicidal ratio of 40% or more and less than 70%). For the same molecule, in series [8], the “b (effect on crop grade)” value was 3 (Herbicidal ratio of 40% or more and less than 70%).
On to `Cn1nnnc1NC(=O)c1ccc(C(F)(F)F)n2c(C[S+]([O-])CC(F)(F)F)nnc12` (centres unmarked) [2-035], for which the “C: Monochoria vaginalis” value in the series with Monochoria vaginalis [1] was 3 (Herbicidal ratio of 40% or more and less than 70%). Besides, in the series on Scirpus juncoides [2], the “B: Scirpus juncoides” value is 3 (Herbicidal ratio of 40% or more and less than 70%). In addition, the “A: Echinochloa oryzicola Vasing. (herbicidal effect grade)” value in series [3] was 4 (Herbicidal ratio of 70% or more and less than 90%). The “a: transplanted Oryza sativa” value in series [4] was 4 (Herbicidal ratio of 70% or more and less than 90%). For the same molecule, the “C (Monochoria vaginalis) herbicidal ratio grade” value with Monochoria vaginalis [5] is 3 (Herbicidal ratio of 40% or more and less than 70%). For the same molecule, the “B (Scirpus juncoides) herbicidal ratio grade” value with Scirpus juncoides [6] is 2 (Herbicidal ratio of 20% or more and less than 40%). Moreover, the “A (Echinochloa oryzicola Vasing.) herbicidal ratio grade” value in series [7] was 2 (Herbicidal ratio of 20% or more and less than 40%). The “b (effect on crop grade)” value in series [8] is listed as 5 (Herbicidal ratio of 90% or more (almost completely withered)).
